Values quoted from earlier work, collected in US11304990B2, “Use of known compounds—intracellular infections” (ISR IMMUNE SYSTEM REGULATION HOLDING AB (PUBL), priority 2017, dated 2022).

What was measured:
[1] = test system: pituitary type I GnRH receptors
CD4 T-lymphocyte = conditions: diabetes-prone BB rats exhibiting an AIDS-like lymphocyte profile

For “pyroGlu-His-Trp-Ser-Tyr-Gly-Leu-Arg-Pro-Gly-NH2 [GnRH I, decapeptide gonadotropin releasing hormone]”, the “fold higher affinity, pituitary vs breast cancer cell receptors” value ([1]; central pituitary binding compared with breast cancer cells) is listed as 1000 fold, the Kd ([1]; central pituitary binding, read-out: binding affinity (Kd)) is listed as 4.8 nM and the “CD4 T-lymphocyte numbers” value (CD4 T-lymphocyte) is listed as “increased”.
